# In patent US20100074920A1 (priority 2006, published 2010):
# Test system: serum antibodies of test subjects Serum 1B-8B
# Conditions: sera S1B-S8B; streptavidin immobilized peptide
substance,measurement,value
Biotin-aminocaproyl-SRPRVRNIP [Peptide 2B],"binding of serum antibodies (immune response), absorbance at 450 nm",especially effective in binding with certain antibodies
